Common to all, as to type: biochemical
Assay [1] concerns the target T1, CALBL (Moesziomyces antarcticus, UniProt P41365).
T1 construct: purchased Novozymes, Bagsvaerd, Denmark Novozym CALB L
T1 sequence (P41365 26-342): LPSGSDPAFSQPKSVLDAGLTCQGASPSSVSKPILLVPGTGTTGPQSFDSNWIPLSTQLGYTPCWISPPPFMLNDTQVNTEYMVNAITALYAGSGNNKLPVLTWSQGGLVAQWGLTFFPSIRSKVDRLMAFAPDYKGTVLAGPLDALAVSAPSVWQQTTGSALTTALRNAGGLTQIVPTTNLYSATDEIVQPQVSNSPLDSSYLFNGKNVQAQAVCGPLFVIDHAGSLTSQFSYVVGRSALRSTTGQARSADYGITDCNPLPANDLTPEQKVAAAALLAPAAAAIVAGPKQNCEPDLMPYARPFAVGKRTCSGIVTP
The assay is described as follows: Small molecule inhibitors, EA content of latex containing CALBL. The arrangement: EA content (column not headed): unit not given here. As to conditions: for Effect of low inhibitor levels on enzyme activity (in words) / EA content (column not headed): CALBL 6 ppm; for Effect of low inhibitor levels on enzyme activity (in words): inhibitor as low as 0.01% or even 0.001% (solid on wet latex); for Inhibition of the carboxylesterase enzyme (in words): CALBL 60 ppm, inhibitor 1.0%; for EA content (column not headed): latex. How it is done: (§1) In another embodiment, deactivation of the carboxylesterase enzyme may be achieved by the addition of a small molecule inhibitor, as shown for CALBL and N51032 in Tables 13 and 14, below. […] The small molecule inhibitor and CALBL were added simultaneously at the time t=0. In the following tables, the potential small molecule inhibitors are as follows: • PBA—phenylboronic acid • S-1-DS—Sodium 1-decane-sulfonate • NPB—Neopentylboronic acid • 2MPB—(2-methylpropyl)boronic acid • CBA—cyclohexylboronic acid
(§2) Again, optimization of the level of use for PBA and 2MPB in the latex is explored below, in Tables 15 and 16, respectively, by the same procedure.

The test system of assay [2] is N51032. The assay is described as follows: Small molecule inhibitors, EA content of latex containing N51032. The following applies: N51032 50 ppm; inhibitor 1%. How it is done: as §1
The small molecule inhibitors are added at 1% by weight of solids on weight of wet latex (at the same time as the esterase).
as §2

Assay [3] concerns N51032. Described as above. As to conditions: N51032 5 ppm; for Effect of low inhibitor levels on enzyme activity (in words): inhibitor as low as 0.01% or even 0.001% (solid on wet latex); for EA content (column not headed): latex.

As for `OB(O)c1ccccc1` [PBA, phenylboronic acid], the “Effect of low inhibitor levels on enzyme activity (in words)” value in assay [1] and in assay [3] was “sufficient to shut off the enzyme activity” each time. In addition, the “Inhibition of the carboxylesterase enzyme (in words)” value (from here on “Inhibition”) in assay [1] and in assay [2] was “effective in inhibiting the carboxylesterase enzyme” each time. The “EA content (column not headed)” value in assay [1] (inhibitor 0.001%, 0 hr) came to 48; in assay [1] (inhibitor 0.001%, 120 hr), 30; in assay [1] (inhibitor 0.001%, 168 hr) it was 25; in assay [1] (inhibitor 0.001%, 384 hr) it was 11; in assay [1] (inhibitor 0.001%, 480 hr) it was 9; in assay [1] (inhibitor 0.01%, 0 hr), 44. Moreover, the “EA content (column not headed)” value in assay [1] (inhibitor 0.01%, 120 hr) amounted to 32; in assay [1] (inhibitor 0.01%, 168 hr), 26; in assay [1] (inhibitor 0.01%, 384 hr) it was 15; in assay [1] (inhibitor 0.01%, 480 hr) it was 15; in assay [1] (inhibitor 0.1%, 0 hr), 39; in assay [1] (inhibitor 0.1%, 120 hr), 35. For the same molecule, the “EA content (column not headed)” value was found to be 35 in assay [1] (inhibitor 0.1%, 168 hr); 29 in assay [1] (inhibitor 0.1%, 384 hr); 29 in assay [1] (inhibitor 0.1%, 480 hr); 46 ppm in assay [3] (inhibitor 0.001%, 0 hr); 36 ppm in assay [3] (inhibitor 0.001%, 120 hr); 34 ppm in assay [3] (inhibitor 0.001%, 168 hr). In addition, the EA content (column not headed) is 22 ppm in assay [3] (inhibitor 0.001%, 384 hr); 19 ppm in assay [3] (inhibitor 0.001%, 480 hr); 45 ppm in assay [3] (inhibitor 0.01%, 0 hr); 41 ppm in assay [3] (inhibitor 0.01%, 120 hr); 39 ppm in assay [3] (inhibitor 0.01%, 168 hr); 34 ppm in assay [3] (inhibitor 0.01%, 384 hr). Moreover, the EA content (column not headed) came out at 34 ppm in assay [3] (inhibitor 0.01%, 480 hr); 46 ppm in assay [3] (inhibitor 0.1%, 0 hr); 34 ppm in assay [3] (inhibitor 0.1%, 120 hr); 41 ppm in assay [3] (inhibitor 0.1%, 168 hr); 38 ppm in assay [3] (inhibitor 0.1%, 384 hr); 39 ppm in assay [3] (inhibitor 0.1%, 480 hr).
Consider `CC(C)CB(O)O` [Paint 2MPB, (2-methylpropyl)boronic acid], for which the “Effect of low inhibitor levels on enzyme activity (in words)” value in assay [1] and in assay [3] was “sufficient to shut off the enzyme activity” throughout. Also, in assay [1], the “Inhibition” value was “effective in inhibiting the carboxylesterase enzyme”. For the same molecule, the “EA content (column not headed)” value is on record as 44 in assay [1] (inhibitor 0.001%, 0 hr); 32 in assay [1] (inhibitor 0.001%, 120 hr); 23 in assay [1] (inhibitor 0.001%, 168 hr); 10 in assay [1] (inhibitor 0.001%, 384 hr); 8 in assay [1] (inhibitor 0.001%, 480 hr); 43 in assay [1] (inhibitor 0.01%, 0 hr). Besides, the “EA content (column not headed)” value in assay [1] (inhibitor 0.01%, 120 hr) was determined as 28; in assay [1] (inhibitor 0.01%, 168 hr) it was 24; in assay [1] (inhibitor 0.01%, 384 hr), 13; in assay [1] (inhibitor 0.01%, 480 hr), 11; in assay [1] (inhibitor 0.1%, 0 hr), 43; in assay [1] (inhibitor 0.1%, 120 hr), 34. The “EA content (column not headed)” value in assay [1] (inhibitor 0.1%, 168 hr) was determined as 25; in assay [1] (inhibitor 0.1%, 384 hr), 15; in assay [1] (inhibitor 0.1%, 480 hr), 13; in assay [3] (inhibitor 0.001%, 0 hr), 42 ppm; in assay [3] (inhibitor 0.001%, 120 hr) it was 24 ppm; in assay [3] (inhibitor 0.001%, 168 hr) it was 22 ppm. Also, the EA content (column not headed) in assay [3] (inhibitor 0.001%, 384 hr) was 8 ppm; in assay [3] (inhibitor 0.001%, 480 hr) it was 6 ppm; in assay [3] (inhibitor 0.01%, 0 hr), 37 ppm; in assay [3] (inhibitor 0.01%, 120 hr) it was 25 ppm; in assay [3] (inhibitor 0.01%, 168 hr) it was 19 ppm; in assay [3] (inhibitor 0.01%, 384 hr), 6 ppm. The EA content (column not headed) came out at 5 ppm in assay [3] (inhibitor 0.01%, 480 hr); 43 ppm in assay [3] (inhibitor 0.1%, 0 hr); 34 ppm in assay [3] (inhibitor 0.1%, 120 hr); 27 ppm in assay [3] (inhibitor 0.1%, 168 hr); 22 ppm in assay [3] (inhibitor 0.1%, 384 hr); 20 ppm in assay [3] (inhibitor 0.1%, 480 hr).
For `OB(O)C1CCCCC1` [CBA, cyclohexylboronic acid], the “Inhibition” value in assay [1] is “some ability to inhibit the CALBL enzyme”.
With `CCCCCCCCCCS(=O)(=O)[O-].[Na+]` [Paint S-1-DS, Sodium 1-decane-sulfonate], in assay [1], the “Inhibition” value was “some ability to inhibit the CALBL enzyme”.
The same measure, in the same setting: the result for `CC(C)(C)CB(O)O` [NPB, Neopentylboronic acid] reads “completely ineffective as an inhibitor”.

The values are drawn from patent US8546482B2, “Low odor compositions and low odor coating compositions” (Rohm and Haas Company, priority 2009, dated 2013).
